Assay [1] relates to Saccharomyces cerevisiae. As to the kind of experiment: Minimum fungicidal concentration against Saccharomyces cerevisiae. It counts as functional.
Assay [2] has as its system Saccharomyces cerevisiae. The assay is described as follows: Minimum fungicidal concentration against Saccharomyces cerevisiae (Inactive). It counts as functional, organism-based.
Assay [3] concerns Pseudomonas aeruginosa. The assay is described as follows: Inhibitory activity against Pseudomonas aeruginosa was determined. It is filed as functional.
Assay [4] concerns Candida albicans. As to the kind of experiment: Antifungicidal activity against Candida albicans was determined. It is filed as functional.
Assay [5] relates to Staphylococcus aureus. As to the kind of experiment: Antimicrobial activity against Staphylococcus aureus was determined. It counts as functional.
Assay [6] relates to Escherichia coli. As to the kind of experiment: Inhibitory activity against Escherichia coli was determined.
Another assay relates to Salmonella enterica. The assay is described as follows: Antimicrobial activity against Salmonella choleraesuis was determined. It is filed as functional.
Assay [7] deals with Klebsiella aerogenes. The assay is described as follows: Antimicrobial activity against Enterobacter aerogenes was determined. It counts as functional.
Assay [8] relates to Corynebacterium ammoniagenes. The assay is described as follows: Inhibitory activity against Brevibacterium ammoniagenes was determined.
Assay [9] has as its system Saccharomyces cerevisiae. As to the kind of experiment: Inhibitory activity against Saccharomyces cerevisiae was determined. It is filed as functional.
Assay [10] has as its system Saccharomyces cerevisiae. The assay is described as follows: Antifungicidal activity against Saccharomyces cerevisiae was determined. It is filed as functional.
The test system of the next assay is Bacillus subtilis. The assay is described as follows: Antimicrobial activity against Bacillus subtilis was determined. It is filed as functional.
Assay [11] deals with Proteus vulgaris. As to the kind of experiment: Inhibitory activity against Proteus vulgaris was determined. It counts as functional.
Assay [12] relates to Aspergillus niger. As to the kind of experiment: Antifungicidal activity against Aspergillus niger was determined. It counts as functional.
Assay [13] deals with Escherichia coli. The assay is described as follows: Antimicrobial activity against Escherichia coli was determined. It is filed as functional.
Assay [14] has as its system Aspergillus niger. As to the kind of experiment: Inhibitory activity against Aspergillus niger was determined. It is filed as functional.
The test system of assay [15] is Staphylococcus aureus. As to the kind of experiment: Antimicrobial activity against Staphylococcus aureus (MRSA) was determined. It is filed as functional.
The test system of assay [16] is Pseudomonas aeruginosa. As to the kind of experiment: Antimicrobial activity against Pseudomonas aeruginosa was determined. It counts as functional.
The test system of assay [17] is Proteus vulgaris. As to the kind of experiment: Antimicrobial activity against Proteus vulgaris was determined. It counts as functional.
The subject of assay [18] is Staphylococcus aureus. The assay is described as follows: Inhibitory activity against Staphylococcus aureus (MRSA) was determined. It is filed as functional.
The test system of assay [19] is Klebsiella aerogenes. The assay is described as follows: Inhibitory activity against Enterobacter aerogenes was determined.
The subject of assay [20] is Streptococcus mutans. As to the kind of experiment: Inhibitory activity against Streptococcus mutans was determined.
Assay [21] relates to Corynebacterium ammoniagenes. The assay is described as follows: Antimicrobial activity against Brevibacterium ammoniagenes was determined. It counts as functional.
For assay [22], the system named is Streptococcus mutans. The assay is described as follows: Antimicrobial activity against Streptococcus mutans was determined. It counts as functional.
In assay [23] the test system is Zygosaccharomyces bailii. The assay is described as follows: Inhibitory activity against Zygosaccharomyces bailii was determined. It counts as functional.
Assay [24] has as its system Cutibacterium acnes. As to the kind of experiment: Antimicrobial activity against Propionibacterium acnes was determined. It is filed as functional.
Assay [25] relates to Candida albicans. As to the kind of experiment: Inhibitory activity against Candida albicans was determined. It is filed as functional.
Assay [26] concerns Micrococcus luteus. The assay is described as follows: Inhibitory activity against Micrococcus luteus was determined.
Assay [27] relates to Cutibacterium acnes. The assay is described as follows: Inhibitory activity against Propionibacterium acnes was determined. It is filed as functional.
The test system of assay [28] is Staphylococcus aureus. As to the kind of experiment: Inhibitory activity against Staphylococcus aureus was determined.
Assay [29] concerns Zygosaccharomyces bailii. The assay is described as follows: Antifungicidal activity against Zygosaccharomyces bailii was determined. It counts as functional.
Assay [30] concerns Micrococcus luteus. The assay is described as follows: Antimicrobial activity against Micrococcus luteus was determined. It is filed as functional.
Assay [31] deals with Staphylococcus aureus. As to the kind of experiment: Inhibitory activity against Staphylococcus aureus was determined. It is filed as functional.
Assay [32] has as its system Klebsiella aerogenes. As to the kind of experiment: Inhibitory activity against Enterobacter aerogenes was determined. It counts as functional.
For assay [33], the system named is Streptococcus mutans. The assay is described as follows: Inhibitory activity against Streptococcus mutans was determined. It counts as functional.
The test system of assay [34] is Micrococcus luteus. As to the kind of experiment: Inhibitory activity against Micrococcus luteus was determined. It counts as functional.
In assay [35] the test system is Escherichia coli. The assay is described as follows: Inhibitory activity against Escherichia coli was determined. It counts as functional.
For assay [36], the system named is Corynebacterium ammoniagenes. As to the kind of experiment: Inhibitory activity against Brevibacterium ammoniagenes was determined. It counts as functional.

For seven compounds, MFC, MIC and MBC results are on record in ChEMBL document CHEMBL1134164, “Antifungal activity of octyl gallate: structural criteria and mode of action” (2001).

In brackets after ≈: the same amount, converted by molar mass. Activity calls are given as the source filed them.

Compound `CCCCCCCOC(=O)/C=C/c1ccc(O)c(O)c1` returned an MFC with Saccharomyces cerevisiae [1] of 50 µg/mL (≈ 180 µM).

With `CCCCCCCCCC(=O)Oc1ccc(O)c(O)c1`, in the assay on Saccharomyces cerevisiae [1], the MFC turned out to be 50 µg/mL (≈ 178 µM).

By MIC is commonly meant the least concentration at which growth counts as inhibited. Regarding `CCCCCCCCOC(=O)c1cccc(O)c1O`, the MIC entry in the assay on Saccharomyces cerevisiae [2] is “inactive”.

By MBC is commonly meant the smallest concentration meeting the test's criterion for killing. Lower therefore signals greater bactericidal potency. Regarding `CCCCCCCCCCCCOC(=O)c1cc(O)c(O)c(O)c1` [DODECYL GALLATE], the MIC in the assay on Pseudomonas aeruginosa [3] is over 800 µg/mL; against Escherichia coli [6], over 800 µg/mL; in [8] it was 12.5 µg/mL (≈ 36.9 µM); in the assay on Proteus vulgaris [11], over 800 µg/mL; against Staphylococcus aureus [18], 12.5 µg/mL (≈ 36.9 µM); in the assay with Klebsiella aerogenes [19], over 800 µg/mL. Further, the MIC was 100 µg/mL (≈ 295 µM) with Streptococcus mutans [20]; over 1600 µg/mL against Zygosaccharomyces bailii [23]; 12.5 µg/mL (≈ 36.9 µM) with Micrococcus luteus [26]; 6.25 µg/mL (≈ 18.5 µM) in the assay on Cutibacterium acnes [27]; 12.5 µg/mL (≈ 36.9 µM) against Staphylococcus aureus [28]. Further, the MFC in the assay with Candida albicans [4] was over 400 µg/mL; in the assay on Saccharomyces cerevisiae [9] it was over 1600 µg/mL; in the assay with Saccharomyces cerevisiae [10] it was over 1600 µg/mL; with Aspergillus niger [12] it was over 400 µg/mL; against Aspergillus niger [14], over 400 µg/mL; in the assay with Candida albicans [25], over 400 µg/mL. The MFC against Zygosaccharomyces bailii [29] was over 1600 µg/mL. The MBC in the assay on Staphylococcus aureus [5] is 25 µg/mL (≈ 73.9 µM); against Salmonella enterica, 50 µg/mL (≈ 148 µM); in the assay with Klebsiella aerogenes [7], over 800 µg/mL; with Bacillus subtilis, 25 µg/mL (≈ 73.9 µM); against Escherichia coli [13], over 800 µg/mL; against Staphylococcus aureus [15], 25 µg/mL (≈ 73.9 µM). Moreover, the minimal bactericidal concentration (MBC) against Pseudomonas aeruginosa [16] was over 800 µg/mL; against Proteus vulgaris [17] it was over 800 µg/mL; in assay [21] it was 25 µg/mL (≈ 73.9 µM); in the assay on Streptococcus mutans [22], 100 µg/mL (≈ 295 µM); with Cutibacterium acnes [24], 6.25 µg/mL (≈ 18.5 µM); against Micrococcus luteus [30], 25 µg/mL (≈ 73.9 µM).

In turn, `CC(C)=CCC/C(C)=C/COC(=O)c1cc(O)c(O)c(O)c1` [Geranyl gallate] came in with an MFC with Saccharomyces cerevisiae [1] of 50 µg/mL (≈ 163 µM).

In the case of `CCCCCCCCOC(=O)c1cc(O)c(O)c(O)c1` [OCTYL_GALLATE], the MIC in the assay with Pseudomonas aeruginosa [3] is over 800 µg/mL; with Staphylococcus aureus [31], 25 µg/mL (≈ 88.5 µM); against Klebsiella aerogenes [32], over 800 µg/mL; in the assay with Streptococcus mutans [33] it was 50 µg/mL (≈ 177 µM); in the assay with Proteus vulgaris [11], 25 µg/mL (≈ 88.5 µM); against Micrococcus luteus [34], 12.5 µg/mL (≈ 44.3 µM). Moreover, the MIC was 25 µg/mL (≈ 88.5 µM) in the assay on Staphylococcus aureus [18]; over 800 µg/mL with Escherichia coli [35]; 50 µg/mL (≈ 177 µM) against Zygosaccharomyces bailii [23]; 25 µg/mL (≈ 88.5 µM) in [36]; 25 µg/mL (≈ 88.5 µM) against Cutibacterium acnes [27]. Further, the MFC is 25 µg/mL (≈ 88.5 µM) against Candida albicans [4]; 25 µg/mL (≈ 88.5 µM) in the assay with Saccharomyces cerevisiae [9]; 25 µg/mL (≈ 88.5 µM) with Saccharomyces cerevisiae [10]; 100 µg/mL (≈ 354 µM) against Aspergillus niger [12]; 50 µg/mL (≈ 177 µM) against Aspergillus niger [14]; 25 µg/mL (≈ 88.5 µM) against Candida albicans [25]. This compound also yielded an MFC in the assay on Zygosaccharomyces bailii [29] of 50 µg/mL (≈ 177 µM). The minimum bactericidal concentration (MBC) in the assay with Staphylococcus aureus [5] was 50 µg/mL (≈ 177 µM); with Salmonella enterica it was 12.5 µg/mL (≈ 44.3 µM); with Klebsiella aerogenes [7], over 800 µg/mL; with Bacillus subtilis, 25 µg/mL (≈ 88.5 µM); against Escherichia coli [13] it was over 800 µg/mL; against Staphylococcus aureus [15] it was 50 µg/mL (≈ 177 µM). Also, the MBC in the assay on Pseudomonas aeruginosa [16] was over 800 µg/mL; against Proteus vulgaris [17], 50 µg/mL (≈ 177 µM); in assay [21], 50 µg/mL (≈ 177 µM); against Streptococcus mutans [22], 50 µg/mL (≈ 177 µM); against Cutibacterium acnes [24] it was 25 µg/mL (≈ 88.5 µM); against Micrococcus luteus [30], 25 µg/mL (≈ 88.5 µM).

On to `CCCOC(=O)c1cc(O)c(O)c(O)c1` [PROPYL GALLATE], for which the MIC against Pseudomonas aeruginosa [3] came to 3200 µg/mL (≈ 15100 µM); in the assay on Staphylococcus aureus [31], 1600 µg/mL (≈ 7540 µM); with Klebsiella aerogenes [32], 3200 µg/mL (≈ 15100 µM); with Streptococcus mutans [33], 400 µg/mL (≈ 1890 µM); with Proteus vulgaris [11] it was 400 µg/mL (≈ 1890 µM); in the assay on Micrococcus luteus [34], 1600 µg/mL (≈ 7540 µM). Moreover, the MIC in the assay on Staphylococcus aureus [18] is 1600 µg/mL (≈ 7540 µM); against Escherichia coli [35], 1600 µg/mL (≈ 7540 µM); in the assay with Zygosaccharomyces bailii [23] it was over 3200 µg/mL; in assay [36], 1600 µg/mL (≈ 7540 µM); against Cutibacterium acnes [27], 800 µg/mL (≈ 3770 µM). Moreover, the MFC against Candida albicans [4] is over 3200 µg/mL; in the assay on Saccharomyces cerevisiae [9], 3200 µg/mL (≈ 15100 µM); against Saccharomyces cerevisiae [10], over 3200 µg/mL; with Aspergillus niger [12], over 3200 µg/mL; against Aspergillus niger [14], over 3200 µg/mL; in the assay with Candida albicans [25], 3200 µg/mL (≈ 15100 µM). The compound further showed an MFC against Zygosaccharomyces bailii [29] of over 3200 µg/mL. Moreover, the MBC against Staphylococcus aureus [5] is 3200 µg/mL (≈ 15100 µM); in the assay on Salmonella enterica it was over 3200 µg/mL; against Klebsiella aerogenes [7] it was over 3200 µg/mL; in the assay on Bacillus subtilis, 1600 µg/mL (≈ 7540 µM); against Escherichia coli [13], 1600 µg/mL (≈ 7540 µM); with Staphylococcus aureus [15], 3200 µg/mL (≈ 15100 µM). The MBC was over 3200 µg/mL against Pseudomonas aeruginosa [16]; 400 µg/mL (≈ 1890 µM) in the assay with Proteus vulgaris [17]; 3200 µg/mL (≈ 15100 µM) in assay [21]; 800 µg/mL (≈ 3770 µM) against Streptococcus mutans [22]; 800 µg/mL (≈ 3770 µM) against Cutibacterium acnes [24]; 3200 µg/mL (≈ 15100 µM) against Micrococcus luteus [30].
